The target of assay [1] is T1, Polyadenylate-binding protein 1 (Homo sapiens, UniProt P11940). Nature of the assay: PABP1 MLLE–PAM2 interaction inhibitors, dose response, miRNA deadenylation inhibitor project, biochemical, fluorescence polarization, Cy5-PAM2 peptide, secondary (AID 602260). The class given is functional. The settings on record: read-out: IC50_Mean.
Assay [2] addresses T1, Polyadenylate-binding protein 1. Nature of the assay: PABP1 MLLE–PAM2 binding inhibitor potency, dose response, biochemical, fluorescence polarization, FITC-PAM2 peptide (AID 602259). The settings on record: read-out: IC50_Mean. In kind it is functional.
For assay [3], the target named is T2, Ubiquitin-conjugating enzyme E2 N (Homo sapiens, UniProt P61088).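 Note: Dose-response confirmation in a TR-FRET assay detecting UBC13-driven polyubiquitin chain formation, inhibition measured.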
T2 sequence (P61088 whole entry): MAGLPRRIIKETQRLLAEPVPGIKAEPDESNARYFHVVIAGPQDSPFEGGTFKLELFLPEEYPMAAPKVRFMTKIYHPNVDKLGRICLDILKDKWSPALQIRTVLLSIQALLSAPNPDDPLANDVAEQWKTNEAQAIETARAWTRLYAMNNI
In kind it is functional.

The target in assay [4] is T3, Heat shock factor protein 1 (Mus musculus, UniProt P38532).
T3 sequence (P38532 whole entry): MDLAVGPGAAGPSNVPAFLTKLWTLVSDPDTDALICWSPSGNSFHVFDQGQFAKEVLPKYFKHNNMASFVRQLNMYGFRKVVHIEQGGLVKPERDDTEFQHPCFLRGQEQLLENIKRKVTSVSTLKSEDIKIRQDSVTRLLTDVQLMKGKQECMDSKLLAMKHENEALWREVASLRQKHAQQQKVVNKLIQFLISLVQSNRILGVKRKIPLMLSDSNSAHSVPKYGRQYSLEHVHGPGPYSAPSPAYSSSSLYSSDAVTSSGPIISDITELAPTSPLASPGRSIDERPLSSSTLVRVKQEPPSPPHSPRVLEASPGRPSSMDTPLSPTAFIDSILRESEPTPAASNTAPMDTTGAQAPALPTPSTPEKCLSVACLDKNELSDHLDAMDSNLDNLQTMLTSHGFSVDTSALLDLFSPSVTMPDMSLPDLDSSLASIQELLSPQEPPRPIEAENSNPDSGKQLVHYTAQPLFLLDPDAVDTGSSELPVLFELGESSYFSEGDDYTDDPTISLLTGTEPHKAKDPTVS
In words: HSF1 potentiators in luciferase reporter cells, confirmation, cell-based, NIH3T3, luminescence, dose retest (AID 435004).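 Note: stress induced by proteasome inhibitor MG132 added 30 min after compound; luciferase reporter driven by HSF1 response element in NIH3T3 cells; actives raise luminescence as potentiators of the MG132 stress response.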 The class given is functional.

In another assay the target is T4, Coagulation factor XII (Homo sapiens, UniProt P00748).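 Note: activated factor XIIa alpha cleaving a fluorogenic AMC peptide substrate; inhibitor potency from loss of enzyme activity.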
T4 sequence (P00748 whole entry): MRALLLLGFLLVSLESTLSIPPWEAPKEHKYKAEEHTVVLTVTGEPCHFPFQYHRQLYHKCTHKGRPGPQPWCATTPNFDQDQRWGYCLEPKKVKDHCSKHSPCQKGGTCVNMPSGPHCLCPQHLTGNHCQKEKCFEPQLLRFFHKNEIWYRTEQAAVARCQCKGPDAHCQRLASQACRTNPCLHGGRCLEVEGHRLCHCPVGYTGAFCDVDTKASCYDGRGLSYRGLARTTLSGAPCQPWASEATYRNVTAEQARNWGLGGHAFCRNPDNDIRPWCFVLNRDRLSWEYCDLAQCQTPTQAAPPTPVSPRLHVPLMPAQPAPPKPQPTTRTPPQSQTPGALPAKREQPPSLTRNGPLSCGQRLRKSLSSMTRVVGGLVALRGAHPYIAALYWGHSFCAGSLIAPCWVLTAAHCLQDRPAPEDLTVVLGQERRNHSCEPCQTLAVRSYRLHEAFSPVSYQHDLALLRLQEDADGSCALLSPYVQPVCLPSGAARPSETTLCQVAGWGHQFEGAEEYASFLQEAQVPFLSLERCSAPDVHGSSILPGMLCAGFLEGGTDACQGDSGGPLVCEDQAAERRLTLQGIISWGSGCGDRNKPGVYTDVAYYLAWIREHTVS
In kind it is functional.

The nature of assay [5]: control 3'UTR Renilla luciferase suppression, dose response, counter-screen for Shn3 inhibitor project, cell-based, Clone20-Shn3RL, cherry-picked (AID 624133). The class given is functional.
The nature of assay [6]: Shn3 3'UTR reporter inhibitors, dose response, cell-based, Clone20 osteoblasts, firefly luciferase, cherry-picked (AID 624132).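 Note: firefly luciferase luminescence from reporter carrying the Shn3 3'UTR in osteoblasts.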 In kind it is functional.
A short description of assay [7]: cells. In kind it is functional, cell-based.
Assay [8] is described as follows: cells. The class given is functional, cell-based. This is another data set of the same source.
Assay [9] in a line: inhibitors of clade B AD8 Env fusion, dose response, cell-based, cherry-pick (AID 652062).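 Note: luciferase signal from cell-cell fusion driven by HIV-1 clade B AD8 Env; potency is for inhibitors of fusion seen as a drop in luminescence.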 The class given is functional.
Assay [10] can be described thus: off-target signal loss in HeLa-CEM21 co-culture – HeLa F-luc CTL cells, cherry-picked, counter-screen for HIV-1 Env fusion inhibitor project, dose response (AID 652040).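 Note: potency for signal decrease marking cytotoxic or nonspecific inhibition.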 In kind it is functional, cell-based.
The subject of a further assay is HEK293. Nature of the assay: inhibitors of LMP1-driven NF-kB reporter, dose response, cell-based, HEK293, luciferase, cherry-pick (AID 588343). The class given is functional. The conditions noted are these: Homo sapiens.
Assay [11] in a line: Luminescence Cell-Based Dose Confirmation HTS to Identify Inhibitors of Platelet Dense Granule Release. [Related pubchem assays: 1663 (Primary HTS), 1678 (Summary of Project)]. In kind it is functional.
The target of assay [12] is Luciferin 4-monooxygenase (Photinus pyralis, UniProt P08659). In words: firefly luciferase enzyme inhibitors, dose response, biochemical, luminescence (AID 1891).
The target in assay [13] is T5, Rac GTPase-activating protein 1 (Homo sapiens, UniProt Q9H0H5).
T5 sequence (Q9H0H5 whole entry): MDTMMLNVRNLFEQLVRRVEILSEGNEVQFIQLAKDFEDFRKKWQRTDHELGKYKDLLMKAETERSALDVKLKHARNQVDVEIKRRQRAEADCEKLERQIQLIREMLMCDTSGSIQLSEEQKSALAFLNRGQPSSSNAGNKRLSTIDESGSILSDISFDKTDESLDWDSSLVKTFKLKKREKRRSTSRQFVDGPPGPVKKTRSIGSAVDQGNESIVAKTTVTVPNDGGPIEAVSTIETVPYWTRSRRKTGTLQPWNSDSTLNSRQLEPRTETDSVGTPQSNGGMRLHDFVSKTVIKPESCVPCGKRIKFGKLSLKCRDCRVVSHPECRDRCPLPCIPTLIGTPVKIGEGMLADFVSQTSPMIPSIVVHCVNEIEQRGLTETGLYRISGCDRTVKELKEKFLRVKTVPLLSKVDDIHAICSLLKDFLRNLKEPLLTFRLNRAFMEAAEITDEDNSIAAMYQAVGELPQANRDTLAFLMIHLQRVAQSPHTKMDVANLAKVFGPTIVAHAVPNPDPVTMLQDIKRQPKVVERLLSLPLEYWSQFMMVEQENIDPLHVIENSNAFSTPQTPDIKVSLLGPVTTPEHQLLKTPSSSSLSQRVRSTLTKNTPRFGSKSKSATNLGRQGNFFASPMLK
Nature of the assay: MgcRacGAP GTPase-activating activity inhibitors, confirmation, biochemical, ADP Hunter fluorescence, primary and confirmatory (AID 624330). In kind it is functional.

The target in another assay is Large T antigen (Simian virus 40, UniProt P03070). In kind it is functional, Betapolyomavirus macacae.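 Note: Confirmatory-stage PubChem screen for compounds that inhibit SV40 T antigen.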

Calls of active or inactive are those of the source.

T1 sequence (P11940 whole entry): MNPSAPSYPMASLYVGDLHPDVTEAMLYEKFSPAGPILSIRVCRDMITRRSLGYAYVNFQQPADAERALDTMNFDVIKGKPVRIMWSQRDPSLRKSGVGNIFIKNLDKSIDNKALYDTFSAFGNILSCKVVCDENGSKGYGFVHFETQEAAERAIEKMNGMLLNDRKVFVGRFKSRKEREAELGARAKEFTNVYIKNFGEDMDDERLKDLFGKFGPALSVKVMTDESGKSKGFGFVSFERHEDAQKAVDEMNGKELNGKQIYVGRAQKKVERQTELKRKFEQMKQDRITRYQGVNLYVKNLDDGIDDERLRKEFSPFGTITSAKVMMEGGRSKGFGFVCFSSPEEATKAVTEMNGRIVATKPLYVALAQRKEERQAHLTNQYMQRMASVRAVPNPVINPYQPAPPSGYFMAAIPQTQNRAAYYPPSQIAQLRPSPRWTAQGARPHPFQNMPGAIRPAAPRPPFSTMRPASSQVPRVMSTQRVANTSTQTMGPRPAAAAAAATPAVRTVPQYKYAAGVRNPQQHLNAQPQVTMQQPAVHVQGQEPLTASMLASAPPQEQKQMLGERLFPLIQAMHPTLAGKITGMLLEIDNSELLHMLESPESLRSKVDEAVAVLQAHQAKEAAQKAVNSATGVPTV
Large T antigen, sequence (P03070 whole entry): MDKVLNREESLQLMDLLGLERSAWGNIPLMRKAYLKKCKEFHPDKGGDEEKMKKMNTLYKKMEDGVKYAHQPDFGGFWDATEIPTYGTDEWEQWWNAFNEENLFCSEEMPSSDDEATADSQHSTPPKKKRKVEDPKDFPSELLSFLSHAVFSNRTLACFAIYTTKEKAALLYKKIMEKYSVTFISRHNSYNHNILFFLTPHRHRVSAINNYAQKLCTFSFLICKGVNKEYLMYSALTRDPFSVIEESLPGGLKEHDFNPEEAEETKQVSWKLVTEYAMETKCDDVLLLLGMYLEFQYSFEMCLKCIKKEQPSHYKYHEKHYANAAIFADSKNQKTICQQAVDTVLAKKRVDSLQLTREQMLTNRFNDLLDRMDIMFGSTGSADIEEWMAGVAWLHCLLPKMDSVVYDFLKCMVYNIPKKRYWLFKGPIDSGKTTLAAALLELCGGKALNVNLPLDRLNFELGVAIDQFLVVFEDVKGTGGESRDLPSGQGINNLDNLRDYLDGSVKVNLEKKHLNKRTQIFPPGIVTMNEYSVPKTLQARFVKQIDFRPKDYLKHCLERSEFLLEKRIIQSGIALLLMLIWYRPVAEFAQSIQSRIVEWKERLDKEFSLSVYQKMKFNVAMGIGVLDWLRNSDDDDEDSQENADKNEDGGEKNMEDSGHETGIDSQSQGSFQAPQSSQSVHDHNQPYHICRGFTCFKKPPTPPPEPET
Luciferin 4-monooxygenase, sequence (P08659 whole entry): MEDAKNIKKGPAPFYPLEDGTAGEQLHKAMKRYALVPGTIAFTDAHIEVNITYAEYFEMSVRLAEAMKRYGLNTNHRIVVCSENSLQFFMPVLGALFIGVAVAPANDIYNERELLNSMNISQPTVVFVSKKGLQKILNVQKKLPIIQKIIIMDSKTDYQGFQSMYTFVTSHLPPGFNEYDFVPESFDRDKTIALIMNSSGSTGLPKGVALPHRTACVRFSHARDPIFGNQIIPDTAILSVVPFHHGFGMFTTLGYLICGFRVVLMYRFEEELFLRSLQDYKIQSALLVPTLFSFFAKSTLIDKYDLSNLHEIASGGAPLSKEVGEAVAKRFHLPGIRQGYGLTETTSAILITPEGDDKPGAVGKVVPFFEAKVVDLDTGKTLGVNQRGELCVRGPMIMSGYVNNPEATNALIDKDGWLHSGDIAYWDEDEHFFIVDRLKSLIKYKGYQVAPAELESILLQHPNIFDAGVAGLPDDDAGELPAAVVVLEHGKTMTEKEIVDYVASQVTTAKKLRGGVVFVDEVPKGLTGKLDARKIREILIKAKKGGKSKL

On to `COc1ccccc1C(N)=S`, for which the IC50 in [1] and in assay [2] was > 66 µM (inactive) throughout.
Regarding `c1ccc(C[C@H]2CNCCN2CCC23CC4CC(CC(C4)C2)C3)cc1`, the IC50 in assay [3] is > 20 µM (inactive).
For the compound `COCc1cc(O)nc(SCCS(=O)(=O)c2ccc(Cl)cc2Cl)n1`, in [4], the EC50 is > 260 µM (inactive). For the same compound, the IC50 in assay [1] and in assay [2] was > 66 µM (inactive) each time.
For `C#CCOCCOCCOCCNc1nc(N2CCN(C(=O)[C@H](CCCN=C(N)N)n3cc(C(N)[C@@H](C)CC)nn3)CC2)nc(N2CCN(C(=O)[C@H](CC(N)=O)n3cc([C@@H](N)CC(N)=O)nn3)CC2)n1` (stereo partly specified), the IC50 in assay [3] was > 20 µM (inactive).
Regarding `COC(C[C@H](O)C[C@@H](O)[C@H](C)OCc1ccccc1)OC`, the IC50 on Coagulation factor XII is > 50 µM (inactive).
The same measure, in the same setting: with `Cc1ccc(OCC(=O)Nc2nnn(C)n2)c(C)c1` the figure was > 50 µM (inactive); with `CC(C)N(Cc1ccccc1)C(S)=NC1CCCCC1`, > 50 µM (inactive).
As to `CC(C)CCC(C(=O)O)C(C)CC(=O)NNC(=O)c1ccco1` (stereo unspecified), the AC50 in assay [5] is 19.9 µM (active); in assay [6] it was > 70 µM (inactive).
Turning to `Cc1ccc(C2(C)NC(=O)N(CC(=O)Nc3ccccc3N3CCCC3)C2=O)cc1` (stereo unspecified), the EC50 in the assay “cells [7]” and in the assay “cells [8]” was > 350 µM (not active) throughout.
For the compound `O=C(CCCCCN1C(=O)c2cccc3cccc(c23)C1=O)NC1CCS(=O)(=O)C1` (stereo unspecified), the IC50 in assay [3] was > 20 µM (inactive).
Turning to `CC(=O)Nc1ccc(SCC(=O)NC(=O)c2ccccc2Br)cc1`, the IC50 in assay [1] and in assay [2] was > 66 µM (inactive) throughout.
As for `CCc1ccc(C(N)=S)cc1`, the IC50 in assay [1] and in assay [2] was > 66 µM (inactive) throughout.
For `COCCNC(=O)C(=O)NCC1OCCN1S(=O)(=O)c1cc(F)ccc1F` (stereo unspecified), the EC50 in “cells [7]” and in “cells [8]” was > 350 µM (not active) each time.
On to `C=CCn1c(N)c(C(=O)OCC)sc1=S`, for which the IC50 in assay [1] and in [2] was > 66 µM (inactive) in each case.
For `O=C(CSc1nc2ccsc2c(=O)n1Cc1ccc(C(=O)O)cc1)NCc1ccco1`, the IC50 in assay [3] was > 20 µM (inactive).
As to `COc1cccc(-c2nnc3n2N=C(c2cc(OC)ccc2OC)CS3)c1`, the IC50 in assay [3] is > 20 µM (inactive).
Turning to `CC12CC3(C)CC(C)(C1)CC(C(=O)NCCc1ccc(S(N)(=O)=O)cc1)(C2)C3`, the EC50 in “cells [7]” and in “cells [8]” was > 350 µM (not active) in each case.
For `CC1CN(S(=O)(=O)c2cccc(C(=O)N(CCc3ccccc3)Cc3ccccc3)c2)CC(C)O1` (stereo unspecified), the EC50 in the assay “cells [7]” and in “cells [8]” was > 350 µM (not active) in each case.
Turning to `Cc1cccc(C)c1NC(=O)CCCSc1nnc(-c2ccc(Cl)cc2)n1-c1ccccc1`, the AC50 in [9] was 10.5 µM (active); in [10], 48.8 µM (active).
With `O=C(CCC(=O)N/N=C/c1ccc(Br)s1)NCc1ccccc1`, at Coagulation factor XII, the IC50 is > 50 µM (inactive).
Regarding `COc1cc(-c2cc(=O)c3ccc(O)cc3o2)cc(OC)c1OC`, the IC50 in assay [1] is > 66 µM (inactive); in assay [2], 33.7 µM (inactive).
As for `Oc1nc(CN2CC=C(c3ccccc3)CC2)nc2cc(C(F)(F)F)ccc12`, the AC50 with HEK293 is > 350 µM (inactive). In addition, the EC50 in assay [11] and in assay [12] was > 112 µM (not active) each time.
Regarding `CCC(CO)n1c(SCc2cc(=O)oc3cc(C)ccc23)nc2ccccc2c1=O` (stereo unspecified), the IC50 at Coagulation factor XII is > 50 µM (inactive).
As for `Nc1ncnc2c1ncn2CCN1CCOCC1`, the EC50 in the assay “cells [7]” and in the assay “cells [8]” was > 350 µM (not active) throughout.
Turning to `O=C1CC(Nc2ccccc2)C(=O)N1Cc1ccccc1` (stereo unspecified), the EC50 in “cells [7]” and in the assay “cells [8]” was > 350 µM (not active) in each case.
Consider `O=S(=O)(NC(=S)NC1CCCCC1)c1cccs1`, for which the IC50 in [1] and in [2] was > 66 µM (inactive) in each case.
Consider `CCOC(=O)c1cccc(NC(=O)CSc2nnc(-c3ccoc3C)n2CCOC)c1`, for which the IC50 at Coagulation factor XII was > 50 µM (inactive).
Take `Cc1ccc2oc(NC(=O)N3CCOCC3)cc(=O)c2c1`: the IC50 on Coagulation factor XII was > 50 µM (inactive).
As for `CCOC(=O)c1[nH]c2ccccc2c1N=C(S)Nc1cccc(C)c1C`, the IC50 in assay [13] was 95.4 µM (active); in [1] it was > 66 µM (inactive); on Large T antigen, 35.1 µM (active); in [2] it was > 66 µM (inactive).
Consider `Cc1sc(NC(=O)CSc2nnnn2C2CCCC2)c(C#N)c1C`, for which the IC50 at Coagulation factor XII was > 50 µM (inactive).
